Values after ≈ are worked out from the molar mass of the structure shown. Where two headings read alike, the source gives them in different places.
Experiments:
[1] = tested on: Staphylococcus aureus FDA 209P JC-1; assay: Antimicrobial activity (minimum inhibitory concentration); assay type: cell-based; conditions: FDA209P; Staphylococcus aureus FDA 209P JC-1, about 10^6 /ml
Protocol: (§1) Minimum inhibitory concentrations (MIC, μg/ml) of various compounds of formula (I) against various microorganisms (about 10^6 /ml) were measured.

[2] = tested on: Staphylococcus aureus MS 353 C36; assay: as above; assay type: cell-based; conditions: MS353C36; Staphylococcus aureus MS 353 C36, about 10^6 /ml
Protocol: as §1

[3] = tested on: Staphylococcus aureus MS 353; assay: as above; assay type: cell-based; conditions: MS353; Staphylococcus aureus MS 353, about 10^6 /ml
Protocol: as §1

[4] = tested on: Staphylococcus aureus Smith; assay: as above; assay type: cell-based; conditions: about 10^6 /ml
Protocol: as §1

[5] = tested on: Staphylococcus epidermidis sp-al-1; assay: as above; assay type: cell-based; conditions: SPAL1; Staphylococcus epidermidis sp-al-1, about 10^6 /ml
Protocol: as §1

[6] = tested on: Staphylococcus pyogenes 1022; assay: as above; assay type: cell-based; conditions: Staphylococcus pyogenes 1022, about 10^6 /ml
Protocol: as §1

[7] = tested on: Staphylococcus pyogenes N.Y.5; assay: as above; assay type: cell-based; conditions: Staphylococcus pyogenes N.Y.5, about 10^6 /ml
Protocol: as §1

[8] = tested on: Staphylococcus pyogenes S-23; assay: as above; assay type: cell-based; conditions: Staphylococcus aureus, S23; Staphylococcus pyogenes S-23, about 10^6 /ml
Protocol: as §1

[9] = tested on: Staphylococcus pyogenes S-23; assay: Infectious disease curing effect by oral administration in infected mice; assay type: in vivo, ICR male mice; conditions: Staphylococcus aureus
Protocol: A pre-incubated test microorganism, Staphylococcus pyogenes S-23, was suspended in a 5% mucin solution and inoculated into the ICR male mice (8 mice per group) abdomen in an amount of 2×10^2. After 1 hour, Compounds (I) of the present invention dissolved or suspended in a phosphate buffer were orally administered to the mice. The mice were inspected for 5 days to determine ED50 (mg/kg) by the Van der Waerden method.

[10] = S23, 120 h, oral, 1 hour after abdominal inoculation of Staphylococcus pyogenes S-23, inspected for 5 days, Van der Waerden method, read-out: ED50

Which results are given for `CCCOC1C=CC(C)=CC(COC2OC(C)C(O)C(OC)C2OC)C(CC)OC(=O)CC(O)C(C)C(OC2OC(C)C(O)C(N(C)C)C2O)C(CC=O)CC1C` (stereo not drawn) [Compound 3, 9-dihydro-9-O-propyldesmycosin]?
MIC [1]: 0.1 µg/mL (≈ 0.123 µM); MIC [2]: 0.2 µg/mL (≈ 0.245 µM); MIC [3]: 0.2 µg/mL (≈ 0.245 µM); MIC [4]: 0.39 µg/mL (≈ 0.478 µM); MIC [5]: 0.2 µg/mL (≈ 0.245 µM); MIC [6]: > 100 µg/mL; MIC [7]: ≤ 0.05 µg/mL; MIC [8]: 0.1 µg/mL (≈ 0.123 µM)

With `CCC1OC(=O)CC(OC(C)=O)C(C)C(OC2OC(C)C(O)C(N(C)C)C2O)C(CC=O)CC(C)C(OC)C=CC(C)=CC1COC1OC(C)C(O)C(OC)C1OC` (stereo not drawn) [Compound 12, 9-dihydro-9-O-methyl-3-O-acetyldesmycosin] as the molecule, how does the MIC [1] read?
The MIC was 0.2 µg/mL (≈ 0.241 µM).

And the MIC [2]?
Its MIC is 0.2 µg/mL (≈ 0.241 µM).

What about the MIC [3] of the same molecule?
The MIC was 0.2 µg/mL (≈ 0.241 µM).

And the MIC [4]?
Its MIC is 0.39 µg/mL (≈ 0.47 µM).

What about the MIC [5] of the same molecule?
Its MIC is 0.39 µg/mL (≈ 0.47 µM).

What about the MIC [6] of the same molecule?
Its MIC is greater than 100 µg/mL.

What about the MIC [7] of the same molecule?
Its MIC is 0.1 µg/mL (≈ 0.12 µM).

What about the MIC [8] of the same molecule?
Its MIC is 0.1 µg/mL (≈ 0.12 µM).

For `CCCOC1C=CC(C)=CC(COC2OC(C)C(O)C(OC)C2OC)C(CC)OC(=O)CC(OC(C)=O)C(C)C(OC2OC(C)C(O)C(N(C)C)C2O)C(CC=O)CC1C` (stereo not drawn) [Compound 9, 9-dihydro-9--O-propyl-3-O-acetyldesmycosin], which MIC [1] is on record?
Its MIC is 0.39 µg/mL (≈ 0.455 µM).

And the MIC [2]?
Its MIC is 0.78 µg/mL (≈ 0.909 µM).

And the MIC [3]?
Its MIC is 0.39 µg/mL (≈ 0.455 µM).

And the MIC [4]?
Its MIC is 0.78 µg/mL (≈ 0.909 µM).

And the MIC [5]?
Its MIC is 0.78 µg/mL (≈ 0.909 µM).

And the MIC [6]?
Its MIC is greater than 100 µg/mL.

And the MIC [7]?
Its MIC is 0.2 µg/mL (≈ 0.233 µM).

And the MIC [8]?
Its MIC is 0.2 µg/mL (≈ 0.233 µM).

What does the source list for `CCCCOC1C=CC(C)=CC(COC2OC(C)C(O)C(OC)C2OC)C(CC)OC(=O)CC(O)C(C)C(OC2OC(C)C(O)C(N(C)C)C2O)C(CC=O)CC1C` (stereo not drawn) [Compound 4, 9-dihydro-9-O-butyldesmycosin]?
MIC [1]: 0.39 µg/mL (≈ 0.47 µM); MIC [2]: 0.39 µg/mL (≈ 0.47 µM); MIC [3]: 0.39 µg/mL (≈ 0.47 µM); MIC [4]: 0.78 µg/mL (≈ 0.94 µM); MIC [5]: 0.39 µg/mL (≈ 0.47 µM); MIC [6]: > 100 µg/mL; MIC [7]: 0.1 µg/mL (≈ 0.12 µM); MIC [8]: 0.2 µg/mL (≈ 0.241 µM)

Which ED50 ([9]; S23, po, 120 h) does the source give for `CC[C@H]1OC(=O)C[C@@H](O)[C@H](C)[C@@H](O[C@@H]2O[C@H](C)[C@@H](O[C@H]3C[C@@](C)(O)[C@@H](O)[C@H](C)O3)[C@H](N(C)C)[C@H]2O)[C@@H](CC=O)C[C@@H](C)C(=O)/C=C/C(C)=C/[C@@H]1CO[C@@H]1O[C@H](C)[C@@H](O)[C@@H](OC)[C@H]1OC` [Tylosin, reference compound] here?
Its ED50 is greater than 200 mg/kg.

Which results are given for `CCOC1C=CC(C)=CC(COC2OC(C)C(O)C(OC)C2OC)C(CC)OC(=O)CC(OC(C)=O)C(C)C(OC2OC(C)C(O)C(N(C)C)C2O)C(CC=O)CC1C` (stereo not drawn) [Compound 8, 9-dihydro-9-O-ethyl-3-O-acetyldesmycosin]?
MIC [1]: 0.2 µg/mL (≈ 0.237 µM); MIC [2]: 0.39 µg/mL (≈ 0.462 µM); MIC [3]: 0.39 µg/mL (≈ 0.462 µM); MIC [4]: 0.78 µg/mL (≈ 0.924 µM); MIC [5]: 0.39 µg/mL (≈ 0.462 µM); MIC [6]: > 100 µg/mL; MIC [7]: 0.1 µg/mL (≈ 0.118 µM); MIC [8]: 0.1 µg/mL (≈ 0.118 µM); ED50 [9, 10]: 50 mg/kg

`CCOC1C=CC(C)=CC(COC2OC(C)C(O)C(OC)C2OC)C(CC)OC(=O)CC(OC(=O)CC)C(C)C(OC2OC(C)C(O)C(N(C)C)C2O)C(CC=O)CC1C` (stereo not drawn) [Compound 10, 9-dihydro-9-O-ethyl-3-O-propionyldesmycosin] was tested. Which MIC [1] did it give?
Its MIC is 0.2 µg/mL (≈ 0.233 µM).

What about the MIC [2] of the same molecule?
Its MIC is 0.39 µg/mL (≈ 0.455 µM).

And the MIC [3]?
Its MIC is 0.39 µg/mL (≈ 0.455 µM).

What about the MIC [4] of the same molecule?
The MIC was 0.78 µg/mL (≈ 0.909 µM).

And the MIC [5]?
Its MIC is 0.78 µg/mL (≈ 0.909 µM).

And the MIC [6]?
Its MIC is greater than 100 µg/mL.

What about the MIC [7] of the same molecule?
Its MIC is 0.1 µg/mL (≈ 0.117 µM).

What about the MIC [8] of the same molecule?
The MIC was 0.39 µg/mL (≈ 0.455 µM).

With `CCC1OC(=O)CC(O)C(C)C(OC2OC(C)C(O)C(N(C)C)C2O)C(CC=O)CC(C)C(OCC2CCC2)C=CC(C)=CC1COC1OC(C)C(O)C(OC)C1OC` (stereo not drawn) [Compound 15, 9-dihydro-9-O-cyclobutylmethyldesmycosin] as the molecule, how does the MIC [1] read?
Its MIC is 0.39 µg/mL (≈ 0.463 µM).

And the MIC [2]?
The MIC was 0.39 µg/mL (≈ 0.463 µM).

And the MIC [3]?
Its MIC is 0.39 µg/mL (≈ 0.463 µM).

And the MIC [4]?
The MIC was 0.78 µg/mL (≈ 0.926 µM).

What about the MIC [5] of the same molecule?
Its MIC is 0.78 µg/mL (≈ 0.926 µM).

And the MIC [6]?
The MIC was 50 µg/mL (≈ 59.4 µM).

And the MIC [7]?
Its MIC is no more than 0.05 µg/mL.

What about the MIC [8] of the same molecule?
The MIC was 0.2 µg/mL (≈ 0.238 µM).

Which MIC [1] does the source give for `CCC1OC(=O)CC(O)C(C)C(OC2OC(C)C(O)C(N(C)C)C2O)C(CC=O)CC(C)C(OCC(C)C)C=CC(C)=CC1COC1OC(C)C(O)C(OC)C1OC` (stereo not drawn) [Compound 17, 9-dihydro-9-O-isobutyldesmycosin] here?
Its MIC is 0.39 µg/mL (≈ 0.47 µM).

What about the MIC [2] of the same molecule?
Its MIC is 0.39 µg/mL (≈ 0.47 µM).

And the MIC [3]?
Its MIC is 0.39 µg/mL (≈ 0.47 µM).

What about the MIC [4] of the same molecule?
Its MIC is 0.78 µg/mL (≈ 0.94 µM).

And the MIC [5]?
Its MIC is 0.39 µg/mL (≈ 0.47 µM).

What about the MIC [6] of the same molecule?
The MIC was greater than 100 µg/mL.

What about the MIC [7] of the same molecule?
Its MIC is 0.1 µg/mL (≈ 0.12 µM).

And the MIC [8]?
The MIC was 0.2 µg/mL (≈ 0.241 µM).

How did the MIC [1] turn out when `CCCOC1C=CC(C)=CC(COC2OC(C)C(O)C(OC)C2OC)C(CC)OC(=O)CC(OC(=O)CC)C(C)C(OC2OC(C)C(O)C(N(C)C)C2O)C(CC=O)CC1C` (stereo not drawn) [Compound 11, 9-dihydro-9-O-propyl-3-O-propionyldesmycosin] was run?
Its MIC is 0.2 µg/mL (≈ 0.229 µM).

And the MIC [2]?
Its MIC is 0.39 µg/mL (≈ 0.447 µM).

What about the MIC [3] of the same molecule?
Its MIC is 0.2 µg/mL (≈ 0.229 µM).

And the MIC [4]?
Its MIC is 0.78 µg/mL (≈ 0.894 µM).

And the MIC [5]?
Its MIC is 0.39 µg/mL (≈ 0.447 µM).

And the MIC [6]?
Its MIC is 100 µg/mL (≈ 115 µM).

And the MIC [7]?
Its MIC is 0.1 µg/mL (≈ 0.115 µM).

And the MIC [8]?
The MIC was 0.2 µg/mL (≈ 0.229 µM).

How did the ED50 [9, 10] turn out when `CCC1OC(=O)CC(O)C(C)C(OC2OC(C)CC(N(C)C)C2O)C(CC=O)CC(C)C(=O)C=CC(C)=CC1COC1OC(C)C(O)C(OC)C1OC` (stereo not drawn) [4'-Deoxydesmycosin, reference compound] was run?
The ED50 was greater than 200 mg/kg.

From US5026832A, “9-dihydro-9-O-alkyldesmycosin derivatives” (Toyo Jozo Co., Ltd., priority 1988, dated 1991)
